Data taken from PMC8632988, “Inhibition of SYK and cSrc kinases can protect bone and cartilage in preclinical models of osteoarthritis and rheumatoid arthritis” (Scientific Reports, 2021).

Legend:
Assay in all cases: Kinase selectivity profile assay
Format in all cases: biochemical
CDK5/p25 = biological target: T1, CDK5/p25 (Homo sapiens, UniProt Q00535); conditions: 500 nM; relative to DMSO; read-out: Residual enzymatic activity
T1 construct: purchased Reaction Biology Corporation
Outline: (§1)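 Radiometric kinase assay run by a standard protocol. Unbound phosphate was removed by washing filters in phosphoric acid, and product radioactivity gave percent remaining kinase activity versus DMSO vehicle reactions. Run in duplicate.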

PKCtheta = biological target: T2, PKCtheta (Homo sapiens, UniProt Q04759); conditions: 500 nM; relative to DMSO; read-out: Residual enzymatic activity
T2 construct: purchased Reaction Biology Corporation
Outline: as §1

PKCb1 = biological target: T3, PKCb1 (Homo sapiens, UniProt P05771); conditions: 500 nM; relative to DMSO; read-out: Residual enzymatic activity
T3 construct: purchased Reaction Biology Corporation
Outline: as §1

p70S6Kb/RPS6KB2 = biological target: T4, p70S6Kb/RPS6KB2 (Homo sapiens, UniProt Q9UBS0); conditions: 500 nM; relative to DMSO; read-out: Residual enzymatic activity
T4 construct: purchased Reaction Biology Corporation
Outline: as §1

OSR1/OXSR1 = biological target: T5, OSR1/OXSR1 (Homo sapiens, UniProt O95747); conditions: 500 nM; relative to DMSO; read-out: Residual enzymatic activity
T5 construct: purchased Reaction Biology Corporation
Outline: as §1

PAK6 = biological target: T6, PAK6 (Homo sapiens, UniProt Q9NQU5); conditions: 500 nM; relative to DMSO; read-out: Residual enzymatic activity
T6 construct: purchased Reaction Biology Corporation
Outline: as §1

MAPKAPK3 = biological target: T7, MAPKAPK3 (Homo sapiens, UniProt Q16644); conditions: 500 nM; relative to DMSO; read-out: Residual enzymatic activity
T7 construct: purchased Reaction Biology Corporation
Outline: as §1

DCAMKL1 = biological target: T8, DCAMKL1 (Homo sapiens, UniProt O15075); conditions: 500 nM; relative to DMSO; read-out: Residual enzymatic activity
T8 construct: purchased Reaction Biology Corporation
Outline: as §1

MST3/STK24 = biological target: T9, MST3/STK24 (Homo sapiens, UniProt Q9Y6E0); conditions: 500 nM; relative to DMSO; read-out: Residual enzymatic activity
T9 construct: purchased Reaction Biology Corporation
Outline: as §1

ALK1/ACVRL1 = biological target: T10, ALK1/ACVRL1 (Homo sapiens, UniProt P37023); conditions: 500 nM; relative to DMSO; read-out: Residual enzymatic activity
T10 construct: purchased Reaction Biology Corporation
Outline: as §1

IRAK1 = biological target: T11, IRAK1 (Homo sapiens, UniProt P51617); conditions: 500 nM; relative to DMSO; read-out: Residual enzymatic activity
T11 construct: purchased Reaction Biology Corporation
Outline: as §1

HIPK4 = biological target: T12, HIPK4 (Homo sapiens, UniProt Q8NE63); conditions: 500 nM; relative to DMSO; read-out: Residual enzymatic activity
T12 construct: purchased Reaction Biology Corporation
Outline: as §1

SIK3 = biological target: T13, SIK3 (Homo sapiens, UniProt Q9Y2K2); conditions: 500 nM; relative to DMSO; read-out: Residual enzymatic activity
T13 construct: purchased Reaction Biology Corporation
Outline: as §1

NEK3 = biological target: T14, NEK3 (Homo sapiens, UniProt P51956); conditions: 500 nM; relative to DMSO; read-out: Residual enzymatic activity
T14 construct: purchased Reaction Biology Corporation
Outline: as §1

ABL2/ARG = biological target: T15, ABL2/ARG (Homo sapiens, UniProt P42684); conditions: for remaining activity at 0.5 µM: 500 nM, relative to DMSO, read-out: Residual enzymatic activity
T15 construct: purchased Reaction Biology Corporation (assay service)
Outline: as §1

FGFR3 = biological target: T16, FGFR3 (Homo sapiens, UniProt P22607); conditions: 500 nM, relative to DMSO; for remaining activity at 0.5 µM: read-out: Residual enzymatic activity
T16 construct: purchased Reaction Biology Corporation
Outline: as §1

ROCK1 = biological target: T17, ROCK1 (Homo sapiens, UniProt Q13464); conditions: 500 nM; relative to DMSO; read-out: Residual enzymatic activity
T17 construct: purchased Reaction Biology Corporation
Outline: as §1

EPHA6 = biological target: T18, EPHA6 (Homo sapiens, UniProt Q9UF33); conditions: 500 nM, relative to DMSO; for remaining activity at 0.5 µM: read-out: Residual enzymatic activity
T18 construct: purchased Reaction Biology Corporation
T18 sequence (Q9UF33 23-1036): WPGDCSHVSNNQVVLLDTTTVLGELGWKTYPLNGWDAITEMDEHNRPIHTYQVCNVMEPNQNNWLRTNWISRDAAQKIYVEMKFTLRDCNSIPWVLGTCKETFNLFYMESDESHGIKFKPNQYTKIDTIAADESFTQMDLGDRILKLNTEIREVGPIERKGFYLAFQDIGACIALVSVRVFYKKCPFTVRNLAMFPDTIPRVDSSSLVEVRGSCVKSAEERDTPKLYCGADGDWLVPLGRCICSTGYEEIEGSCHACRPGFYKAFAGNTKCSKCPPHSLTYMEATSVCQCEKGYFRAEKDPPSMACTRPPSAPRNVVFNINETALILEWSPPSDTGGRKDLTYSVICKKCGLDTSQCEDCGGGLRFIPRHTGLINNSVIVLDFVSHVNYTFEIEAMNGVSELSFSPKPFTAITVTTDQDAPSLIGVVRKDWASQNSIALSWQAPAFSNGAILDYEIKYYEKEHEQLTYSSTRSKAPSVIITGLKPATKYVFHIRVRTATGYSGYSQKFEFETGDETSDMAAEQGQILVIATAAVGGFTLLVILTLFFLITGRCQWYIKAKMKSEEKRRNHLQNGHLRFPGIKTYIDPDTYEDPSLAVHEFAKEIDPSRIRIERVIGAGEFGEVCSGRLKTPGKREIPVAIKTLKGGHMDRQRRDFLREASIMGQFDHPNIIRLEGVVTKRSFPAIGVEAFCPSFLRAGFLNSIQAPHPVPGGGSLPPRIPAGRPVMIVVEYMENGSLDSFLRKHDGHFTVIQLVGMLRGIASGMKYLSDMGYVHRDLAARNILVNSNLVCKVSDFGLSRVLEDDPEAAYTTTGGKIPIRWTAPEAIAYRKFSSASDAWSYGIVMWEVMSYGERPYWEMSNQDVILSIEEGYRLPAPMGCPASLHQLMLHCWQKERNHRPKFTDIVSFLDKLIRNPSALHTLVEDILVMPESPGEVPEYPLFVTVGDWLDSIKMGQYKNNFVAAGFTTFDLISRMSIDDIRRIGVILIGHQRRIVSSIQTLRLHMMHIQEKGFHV
Outline: as §1

NEK1 = biological target: T19, NEK1 (Homo sapiens, UniProt Q96PY6); conditions: 500 nM; relative to DMSO; read-out: Residual enzymatic activity
T19 construct: purchased Reaction Biology Corporation
Outline: as §1

RIPK5 = biological target: T20, RIPK5 (Homo sapiens, UniProt Q6XUX3); conditions: 500 nM; relative to DMSO; read-out: Residual enzymatic activity
T20 construct: purchased Reaction Biology Corporation
Outline: as §1

NEK4 = biological target: T21, NEK4 (Homo sapiens, UniProt P51957); conditions: 500 nM; relative to DMSO; read-out: Residual enzymatic activity
T21 construct: purchased Reaction Biology Corporation
Outline: as §1

ULK2 = biological target: T22, ULK2 (Homo sapiens, UniProt Q8IYT8); conditions: 500 nM; relative to DMSO; read-out: Residual enzymatic activity
T22 construct: purchased Reaction Biology Corporation
Outline: as §1

HIPK2 = biological target: T23, HIPK2 (Homo sapiens, UniProt Q9H2X6); conditions: 500 nM; relative to DMSO; read-out: Residual enzymatic activity
T23 construct: purchased Reaction Biology Corporation
Outline: as §1

MINK/MINK1 = biological target: T24, MINK/MINK1 (Homo sapiens, UniProt Q8N4C8); conditions: 500 nM; relative to DMSO; read-out: Residual enzymatic activity
T24 construct: purchased Reaction Biology Corporation
Outline: as §1

SLK/STK2 = biological target: T25, SLK/STK2 (Homo sapiens, UniProt Q9H2G2); conditions: 500 nM; relative to DMSO; read-out: Residual enzymatic activity
T25 construct: purchased Reaction Biology Corporation
Outline: as §1

SRMS = biological target: T26, SRMS (Homo sapiens, UniProt Q9H3Y6); conditions: 500 nM; relative to DMSO; read-out: Residual enzymatic activity
T26 construct: purchased Reaction Biology Corporation
Outline: as §1

TRKA = biological target: T27, TRKA (Homo sapiens, UniProt P04629); conditions: 500 nM; relative to DMSO; read-out: Residual enzymatic activity
T27 construct: purchased Reaction Biology Corporation
Outline: as §1

T15 sequence (P42684 whole entry): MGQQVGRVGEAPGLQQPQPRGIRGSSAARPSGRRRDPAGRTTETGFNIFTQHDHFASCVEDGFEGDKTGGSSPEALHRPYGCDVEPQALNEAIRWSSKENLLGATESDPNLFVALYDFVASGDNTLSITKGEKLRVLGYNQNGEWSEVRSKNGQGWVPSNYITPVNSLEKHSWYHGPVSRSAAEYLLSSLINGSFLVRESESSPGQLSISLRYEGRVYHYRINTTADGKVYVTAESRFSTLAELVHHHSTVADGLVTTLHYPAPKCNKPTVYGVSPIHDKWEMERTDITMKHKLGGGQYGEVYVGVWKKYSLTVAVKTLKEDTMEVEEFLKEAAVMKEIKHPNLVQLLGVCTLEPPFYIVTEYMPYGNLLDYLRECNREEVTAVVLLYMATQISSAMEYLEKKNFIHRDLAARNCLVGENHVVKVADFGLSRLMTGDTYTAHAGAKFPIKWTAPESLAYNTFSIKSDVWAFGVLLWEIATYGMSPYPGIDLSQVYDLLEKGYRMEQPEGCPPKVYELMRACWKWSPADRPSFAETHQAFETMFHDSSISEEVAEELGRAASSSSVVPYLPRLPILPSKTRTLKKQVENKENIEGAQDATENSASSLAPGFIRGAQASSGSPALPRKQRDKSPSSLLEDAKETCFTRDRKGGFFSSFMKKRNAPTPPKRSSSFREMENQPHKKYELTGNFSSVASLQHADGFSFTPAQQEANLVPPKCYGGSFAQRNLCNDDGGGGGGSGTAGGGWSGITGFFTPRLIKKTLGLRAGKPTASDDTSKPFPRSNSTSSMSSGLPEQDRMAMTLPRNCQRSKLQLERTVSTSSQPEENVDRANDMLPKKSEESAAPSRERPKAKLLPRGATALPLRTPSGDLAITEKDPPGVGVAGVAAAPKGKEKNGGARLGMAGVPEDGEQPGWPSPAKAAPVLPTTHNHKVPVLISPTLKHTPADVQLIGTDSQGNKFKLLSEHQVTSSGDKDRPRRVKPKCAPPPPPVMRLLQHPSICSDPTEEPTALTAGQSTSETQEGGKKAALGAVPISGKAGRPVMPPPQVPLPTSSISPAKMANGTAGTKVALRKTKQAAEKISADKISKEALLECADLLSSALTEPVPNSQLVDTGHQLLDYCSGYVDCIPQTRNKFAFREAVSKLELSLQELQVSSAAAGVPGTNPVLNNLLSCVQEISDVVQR
T16 sequence (P22607 23-806): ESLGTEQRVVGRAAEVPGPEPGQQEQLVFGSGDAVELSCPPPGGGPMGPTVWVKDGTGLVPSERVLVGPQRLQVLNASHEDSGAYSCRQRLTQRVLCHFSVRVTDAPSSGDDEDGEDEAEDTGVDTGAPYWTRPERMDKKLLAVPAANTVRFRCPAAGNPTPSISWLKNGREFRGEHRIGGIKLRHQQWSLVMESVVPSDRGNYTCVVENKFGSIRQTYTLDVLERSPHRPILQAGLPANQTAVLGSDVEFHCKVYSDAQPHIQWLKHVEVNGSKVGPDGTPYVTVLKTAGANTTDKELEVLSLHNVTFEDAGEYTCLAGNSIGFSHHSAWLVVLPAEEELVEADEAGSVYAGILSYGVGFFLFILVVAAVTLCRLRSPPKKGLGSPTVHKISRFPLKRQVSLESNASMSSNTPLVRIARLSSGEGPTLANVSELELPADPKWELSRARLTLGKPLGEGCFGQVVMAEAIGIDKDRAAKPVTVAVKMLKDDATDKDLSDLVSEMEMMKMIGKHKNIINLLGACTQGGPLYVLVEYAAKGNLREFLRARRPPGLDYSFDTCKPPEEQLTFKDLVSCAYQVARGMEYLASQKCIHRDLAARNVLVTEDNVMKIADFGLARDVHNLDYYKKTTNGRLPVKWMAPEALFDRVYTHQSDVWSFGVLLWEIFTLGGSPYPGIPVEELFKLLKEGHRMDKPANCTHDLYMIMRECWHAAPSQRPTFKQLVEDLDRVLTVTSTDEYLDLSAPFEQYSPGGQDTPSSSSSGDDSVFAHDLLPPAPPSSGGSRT
T27 sequence (P04629 33-796): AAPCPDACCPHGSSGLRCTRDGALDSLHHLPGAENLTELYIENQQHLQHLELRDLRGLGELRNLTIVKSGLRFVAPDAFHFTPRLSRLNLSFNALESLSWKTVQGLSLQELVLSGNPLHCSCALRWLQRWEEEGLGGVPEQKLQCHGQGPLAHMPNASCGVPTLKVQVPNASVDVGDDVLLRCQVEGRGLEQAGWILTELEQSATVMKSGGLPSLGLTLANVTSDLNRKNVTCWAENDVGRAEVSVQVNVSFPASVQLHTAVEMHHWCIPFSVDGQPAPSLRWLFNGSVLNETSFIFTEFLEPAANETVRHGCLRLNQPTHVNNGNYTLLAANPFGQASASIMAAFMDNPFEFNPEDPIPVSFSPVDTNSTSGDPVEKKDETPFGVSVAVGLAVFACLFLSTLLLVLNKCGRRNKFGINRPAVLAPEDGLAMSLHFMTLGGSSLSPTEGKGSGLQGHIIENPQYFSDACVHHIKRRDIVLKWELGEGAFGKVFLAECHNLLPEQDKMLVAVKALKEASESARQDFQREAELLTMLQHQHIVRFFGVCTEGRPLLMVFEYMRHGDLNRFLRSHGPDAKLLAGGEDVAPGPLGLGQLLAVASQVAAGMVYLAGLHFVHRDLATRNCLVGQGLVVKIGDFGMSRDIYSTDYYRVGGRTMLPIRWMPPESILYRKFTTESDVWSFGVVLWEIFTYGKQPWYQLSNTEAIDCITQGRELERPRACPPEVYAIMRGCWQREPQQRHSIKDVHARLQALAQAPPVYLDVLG
T17 sequence (Q13464 whole entry): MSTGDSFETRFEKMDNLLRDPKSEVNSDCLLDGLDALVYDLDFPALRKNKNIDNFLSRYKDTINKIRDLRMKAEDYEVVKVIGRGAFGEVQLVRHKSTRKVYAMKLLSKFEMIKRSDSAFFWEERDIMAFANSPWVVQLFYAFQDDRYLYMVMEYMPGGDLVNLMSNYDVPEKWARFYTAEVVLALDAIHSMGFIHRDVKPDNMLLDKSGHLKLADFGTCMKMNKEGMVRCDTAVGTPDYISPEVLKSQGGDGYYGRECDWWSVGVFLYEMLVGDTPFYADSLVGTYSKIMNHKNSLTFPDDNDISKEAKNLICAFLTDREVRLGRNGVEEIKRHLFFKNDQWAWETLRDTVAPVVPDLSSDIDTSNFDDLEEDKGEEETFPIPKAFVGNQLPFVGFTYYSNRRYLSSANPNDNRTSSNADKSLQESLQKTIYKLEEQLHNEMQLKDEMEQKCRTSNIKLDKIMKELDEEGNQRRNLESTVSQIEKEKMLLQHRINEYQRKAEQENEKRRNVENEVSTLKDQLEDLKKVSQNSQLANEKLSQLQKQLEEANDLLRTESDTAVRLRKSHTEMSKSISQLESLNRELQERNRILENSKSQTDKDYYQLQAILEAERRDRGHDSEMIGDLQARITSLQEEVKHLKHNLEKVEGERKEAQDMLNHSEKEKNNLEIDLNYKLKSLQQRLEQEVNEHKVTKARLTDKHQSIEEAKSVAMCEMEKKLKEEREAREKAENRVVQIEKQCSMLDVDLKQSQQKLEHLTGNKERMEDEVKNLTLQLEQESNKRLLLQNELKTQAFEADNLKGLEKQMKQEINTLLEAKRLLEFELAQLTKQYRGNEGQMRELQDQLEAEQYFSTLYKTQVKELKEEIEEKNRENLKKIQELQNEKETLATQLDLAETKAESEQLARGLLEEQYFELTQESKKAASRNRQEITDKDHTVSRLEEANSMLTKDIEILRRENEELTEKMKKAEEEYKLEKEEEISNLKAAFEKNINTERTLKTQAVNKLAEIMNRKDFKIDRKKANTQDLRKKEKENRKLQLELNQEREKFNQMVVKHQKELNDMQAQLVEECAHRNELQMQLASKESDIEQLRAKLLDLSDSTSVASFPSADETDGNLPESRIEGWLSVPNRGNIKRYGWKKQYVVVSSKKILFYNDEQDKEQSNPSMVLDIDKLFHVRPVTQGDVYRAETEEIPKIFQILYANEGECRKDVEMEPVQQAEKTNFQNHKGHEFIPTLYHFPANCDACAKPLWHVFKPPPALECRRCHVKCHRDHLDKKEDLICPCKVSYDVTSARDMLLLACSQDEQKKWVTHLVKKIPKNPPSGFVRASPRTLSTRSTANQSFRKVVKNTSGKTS
T20 sequence (Q6XUX3 whole entry): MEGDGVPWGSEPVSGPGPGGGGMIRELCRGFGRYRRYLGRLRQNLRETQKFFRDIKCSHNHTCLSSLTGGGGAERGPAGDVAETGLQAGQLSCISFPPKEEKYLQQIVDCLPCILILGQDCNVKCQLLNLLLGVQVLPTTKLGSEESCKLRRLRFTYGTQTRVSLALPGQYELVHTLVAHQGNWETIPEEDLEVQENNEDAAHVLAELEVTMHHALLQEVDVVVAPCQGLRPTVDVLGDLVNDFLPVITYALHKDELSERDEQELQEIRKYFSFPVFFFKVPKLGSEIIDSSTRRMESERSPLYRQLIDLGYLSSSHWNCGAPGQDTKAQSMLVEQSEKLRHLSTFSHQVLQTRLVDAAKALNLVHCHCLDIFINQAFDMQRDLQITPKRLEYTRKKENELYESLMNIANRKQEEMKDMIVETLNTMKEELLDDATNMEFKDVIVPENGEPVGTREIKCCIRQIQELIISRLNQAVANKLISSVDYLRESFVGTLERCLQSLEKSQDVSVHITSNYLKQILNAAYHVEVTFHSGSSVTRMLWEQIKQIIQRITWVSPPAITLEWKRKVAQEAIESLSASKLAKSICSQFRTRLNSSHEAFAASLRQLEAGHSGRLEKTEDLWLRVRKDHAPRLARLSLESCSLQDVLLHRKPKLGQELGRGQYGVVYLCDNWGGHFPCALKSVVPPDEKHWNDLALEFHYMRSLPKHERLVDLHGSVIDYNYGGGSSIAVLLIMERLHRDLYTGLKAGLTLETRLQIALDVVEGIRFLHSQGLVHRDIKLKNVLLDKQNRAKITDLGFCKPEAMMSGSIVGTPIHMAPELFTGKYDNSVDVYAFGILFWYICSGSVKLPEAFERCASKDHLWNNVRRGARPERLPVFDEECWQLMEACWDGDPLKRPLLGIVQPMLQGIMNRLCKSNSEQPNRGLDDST

COc1cc(Nc2ncnc(Nc3cc4c(cn3)NC(=O)C(C)(C)O4)n2)cc(OC)c1OC [MT-SYK-03]
remaining activity at 0.5 µM (CDK5/p25): 102% | remaining activity at 0.5 µM (PKCtheta): 102% | remaining activity at 0.5 µM (PKCb1): 104% | remaining activity at 0.5 µM (p70S6Kb/RPS6KB2): 91.4% | remaining activity at 0.5 µM (OSR1/OXSR1): 98.2% | remaining activity at 0.5 µM (PAK6): 96.5% | remaining activity at 0.5 µM (MAPKAPK3): 102% | remaining activity at 0.5 µM (DCAMKL1): 97.6% | remaining activity at 0.5 µM (MST3/STK24): 108% | remaining activity at 0.5 µM (ALK1/ACVRL1): 126% | remaining activity at 0.5 µM (IRAK1): 74.6% | remaining activity at 0.5 µM (HIPK4): 112% | remaining activity at 0.5 µM (SIK3): 83.4% | remaining activity at 0.5 µM (NEK3): 72% | remaining activity at 0.5 µM (ABL2/ARG): 32.3% | IC50 (ABL2/ARG; 10-dose mode, threefold serial dilution from 10 μM): 120 nM | Residual enzymatic activity (FGFR3): 57.2% | remaining activity at 0.5 µM (FGFR3): > 54% | remaining activity at 0.5 µM (ROCK1): 95.1% | Residual enzymatic activity (EPHA6): 73.9% | remaining activity at 0.5 µM (EPHA6): > 54% | remaining activity at 0.5 µM (NEK1): 52.7% | remaining activity at 0.5 µM (RIPK5): 104% | remaining activity at 0.5 µM (NEK4): 109% | remaining activity at 0.5 µM (ULK2): 111% | remaining activity at 0.5 µM (HIPK2): 103% | remaining activity at 0.5 µM (MINK/MINK1): 92% | remaining activity at 0.5 µM (SLK/STK2): 81% | remaining activity at 0.5 µM (SRMS): 99.7% | remaining activity at 0.5 µM (TRKA): 82.5%

COc1cc(Nc2ncc(F)c(Nc3ccc4c(n3)NC(=O)C(C)(C)O4)n2)cc(OC)c1OC [R406, reference compound]
remaining activity at 0.5 µM (CDK5/p25): 79.4% | remaining activity at 0.5 µM (PKCtheta): 99.5% | remaining activity at 0.5 µM (PKCb1): 63% | remaining activity at 0.5 µM (p70S6Kb/RPS6KB2): 74.6% | remaining activity at 0.5 µM (OSR1/OXSR1): 97.2% | remaining activity at 0.5 µM (PAK6): 81.2% | remaining activity at 0.5 µM (MAPKAPK3): 102% | remaining activity at 0.5 µM (DCAMKL1): 84.2% | remaining activity at 0.5 µM (MST3/STK24): 95.6% | remaining activity at 0.5 µM (ALK1/ACVRL1): 100% | remaining activity at 0.5 µM (IRAK1): 13.5% | remaining activity at 0.5 µM (HIPK4): 92.9% | remaining activity at 0.5 µM (SIK3): 75.4% | remaining activity at 0.5 µM (NEK3): 19.2% | remaining activity at 0.5 µM (ABL2/ARG): 34.5% | remaining activity at 0.5 µM (FGFR3): 17.4% | remaining activity at 0.5 µM (ROCK1): 87% | remaining activity at 0.5 µM (EPHA6): 24.9% | remaining activity at 0.5 µM (NEK1): 7% | remaining activity at 0.5 µM (RIPK5): 100% | remaining activity at 0.5 µM (NEK4): 52.1% | remaining activity at 0.5 µM (ULK2): 37.9% | remaining activity at 0.5 µM (HIPK2): 94.9% | remaining activity at 0.5 µM (MINK/MINK1): 87.3% | remaining activity at 0.5 µM (SLK/STK2): 31.4% | remaining activity at 0.5 µM (SRMS): 101% | remaining activity at 0.5 µM (TRKA): 25.7%
